Reference: ChEMBL document CHEMBL5233284, “Design, synthesis and anticancer evaluation of 3-methyl-1H-indazole derivatives as novel selective bromodomain-containing protein 4 inhibitors” (Bioorg Med Chem, 2021)
Active and inactive are the calls of the source. The calls are words filed in the database; no cut-off is given here.

How the values were obtained:
MV4-11 [1] = test: Antiproliferative activity against human MV4-11 cells assessed as inhibition of cell growth at 10 uM incubated for 96 to 120 hrs by celltiter glo assay relative to control; format: functional; conditions: for inhibition at 10 µM: Homo sapiens, MV4-11, time 96-120 hrs
[2] = target: T1, Bromodomain-containing protein 4 (Homo sapiens, UniProt O60885); test: Inhibition of BRD4-BD1 (unknown origin) using C-terminal biotinylated tetra-acetylated histone H4 peptide as substrate incubated for 2.5 hrs by alphascreen assay
[3] = target: T1, Bromodomain-containing protein 4; conditions: dose 200.0 µM, time 30-60 min
Description: Binding affinity to BRD4-BD1 (unknown origin) assessed as change in melting temperature at 200 uM incubated for 30 to 60 mins by SYPRO orange dye based thermal shift assay

CWR22R [4] = test: Antiproliferative activity against human 22Rv1 cells assessed as inhibition of cell growth at 10 uM incubated for 96 to 120 hrs by celltiter glo assay relative to control; format: functional; conditions: for inhibition at 10 µM: Homo sapiens, 22Rv1, time 96-120 hrs
MV4-11 [5] = test: Antiproliferative activity against human MV4-11 cells assessed as inhibition of cell growth incubated for 96 to 120 hrs by celltiter glo assay; format: functional, cell-based
CWR22R [6] = test: Antiproliferative activity against human 22Rv1 cells assessed as inhibition of cell growth incubated for 96 to 120 hrs by celltiter glo assay; format: functional, cell-based
[7] = target: SWI/SNF-related matrix-associated actin-dependent regulator of chromatin subfamily A member 2 (Homo sapiens) (UniProt P51531); test: Binding affinity to SMARCA2A (unknown origin) assessed as change in melting temperature at 200 uM incubated for 30 to 60 mins by SYPRO orange dye based thermal shift assay; conditions: time 30-60 min
[8] = target: Bromodomain adjacent to zinc finger domain protein 2B (Homo sapiens) (UniProt Q9UIF8); test: Binding affinity to BAZ2B (unknown origin) assessed as change in melting temperature at 200 uM incubated for 30 to 60 mins by SYPRO orange dye based thermal shift assay; conditions: time 30-60 min
[9] = target: Bromodomain-containing protein 2 (Homo sapiens) (UniProt P25440); test: Binding affinity to BRD2 BD1 (unknown origin) assessed as change in melting temperature at 200 uM incubated for 30 to 60 mins by SYPRO orange dye based thermal shift assay; conditions: time 30-60 min
[10] = target: CREB-binding protein (Homo sapiens) (UniProt Q92793); test: Binding affinity to CBP (unknown origin) assessed as change in melting temperature at 200 uM incubated for 30 to 60 mins by SYPRO orange dye based thermal shift assay; conditions: time 30-60 min
[11] = target: T1, Bromodomain-containing protein 4; test: Inhibition of BRD4 BD1 in human MV4-11 cells assessed as inhibition of c-myc protein expression at 20 uM incubated for 48 hrs by Western blot analysis; format: cell-based
[12] = target: Bromodomain-containing protein 3 (Homo sapiens) (UniProt Q15059); test: Binding affinity to BRD3 BD1 (unknown origin) assessed as change in melting temperature at 200 uM incubated for 30 to 60 mins by SYPRO orange dye based thermal shift assay; conditions: time 30-60 min
[13] = target: Chromatin remodeling regulator CECR2 (Homo sapiens) (UniProt Q9BXF3); test: Binding affinity to CECR2 (unknown origin) assessed as change in melting temperature at 200 uM incubated for 30 to 60 mins by SYPRO orange dye based thermal shift assay; conditions: time 30-60 min
[14] = target: Histone acetyltransferase p300 (Homo sapiens) (UniProt Q09472); test: Binding affinity to EP300 (unknown origin) assessed as change in melting temperature at 200 uM incubated for 30 to 60 mins by SYPRO orange dye based thermal shift assay; conditions: time 30-60 min
[15] = target: Histone acetyltransferase KAT2B (Homo sapiens) (UniProt Q92831); test: Binding affinity to PCAF (unknown origin) assessed as change in melting temperature at 200 uM incubated for 30 to 60 mins by SYPRO orange dye based thermal shift assay; conditions: time 30-60 min
[16] = target: T1, Bromodomain-containing protein 4; test: Inhibition of BRD4-BD1 (unknown origin) at 60 uM relative to control

Chain of SWI/SNF-related matrix-associated actin-dependent regulator of chromatin subfamily A member 2 (Homo sapiens) (P51531 whole entry, the tested form may be a part): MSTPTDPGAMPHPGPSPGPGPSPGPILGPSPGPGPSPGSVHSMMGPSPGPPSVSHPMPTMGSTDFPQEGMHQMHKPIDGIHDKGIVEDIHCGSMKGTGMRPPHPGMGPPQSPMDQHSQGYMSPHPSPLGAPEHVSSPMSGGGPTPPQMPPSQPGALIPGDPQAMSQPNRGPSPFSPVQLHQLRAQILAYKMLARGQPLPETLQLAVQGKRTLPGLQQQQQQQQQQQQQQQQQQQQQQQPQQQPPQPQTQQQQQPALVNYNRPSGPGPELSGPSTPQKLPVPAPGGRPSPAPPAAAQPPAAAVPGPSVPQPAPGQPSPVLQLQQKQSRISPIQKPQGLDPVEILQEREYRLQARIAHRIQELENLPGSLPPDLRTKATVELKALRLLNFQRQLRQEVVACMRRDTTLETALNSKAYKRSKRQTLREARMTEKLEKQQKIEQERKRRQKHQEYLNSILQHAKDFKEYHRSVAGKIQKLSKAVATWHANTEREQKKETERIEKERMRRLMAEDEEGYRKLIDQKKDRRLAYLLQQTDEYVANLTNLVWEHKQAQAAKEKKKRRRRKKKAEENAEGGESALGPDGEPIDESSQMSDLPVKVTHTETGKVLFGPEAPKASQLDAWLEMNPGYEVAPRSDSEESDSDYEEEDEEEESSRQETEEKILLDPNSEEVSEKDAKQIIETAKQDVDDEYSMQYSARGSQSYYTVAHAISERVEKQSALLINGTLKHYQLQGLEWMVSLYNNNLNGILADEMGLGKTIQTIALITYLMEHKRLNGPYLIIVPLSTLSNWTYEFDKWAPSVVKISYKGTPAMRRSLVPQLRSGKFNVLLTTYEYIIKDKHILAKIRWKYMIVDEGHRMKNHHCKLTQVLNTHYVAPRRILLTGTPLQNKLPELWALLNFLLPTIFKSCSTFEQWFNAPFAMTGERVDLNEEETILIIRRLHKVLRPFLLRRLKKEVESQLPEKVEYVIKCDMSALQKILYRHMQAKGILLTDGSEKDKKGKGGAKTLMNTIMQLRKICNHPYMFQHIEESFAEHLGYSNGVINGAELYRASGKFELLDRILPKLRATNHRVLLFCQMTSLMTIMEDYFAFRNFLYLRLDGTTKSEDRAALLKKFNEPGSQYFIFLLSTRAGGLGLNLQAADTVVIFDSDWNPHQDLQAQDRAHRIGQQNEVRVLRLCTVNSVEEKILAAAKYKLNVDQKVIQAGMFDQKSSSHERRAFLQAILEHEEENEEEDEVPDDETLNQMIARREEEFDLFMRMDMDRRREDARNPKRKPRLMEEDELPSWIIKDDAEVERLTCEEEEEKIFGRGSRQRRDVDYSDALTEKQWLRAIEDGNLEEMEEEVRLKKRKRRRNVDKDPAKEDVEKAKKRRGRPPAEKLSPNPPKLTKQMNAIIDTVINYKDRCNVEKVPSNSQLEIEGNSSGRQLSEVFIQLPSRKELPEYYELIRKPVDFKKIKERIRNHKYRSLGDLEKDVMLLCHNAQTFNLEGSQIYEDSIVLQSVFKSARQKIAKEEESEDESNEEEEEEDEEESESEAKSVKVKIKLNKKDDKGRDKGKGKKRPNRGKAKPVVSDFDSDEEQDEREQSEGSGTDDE
Chain of Bromodomain adjacent to zinc finger domain protein 2B (Homo sapiens) (Q9UIF8 whole entry, the tested form may be a part): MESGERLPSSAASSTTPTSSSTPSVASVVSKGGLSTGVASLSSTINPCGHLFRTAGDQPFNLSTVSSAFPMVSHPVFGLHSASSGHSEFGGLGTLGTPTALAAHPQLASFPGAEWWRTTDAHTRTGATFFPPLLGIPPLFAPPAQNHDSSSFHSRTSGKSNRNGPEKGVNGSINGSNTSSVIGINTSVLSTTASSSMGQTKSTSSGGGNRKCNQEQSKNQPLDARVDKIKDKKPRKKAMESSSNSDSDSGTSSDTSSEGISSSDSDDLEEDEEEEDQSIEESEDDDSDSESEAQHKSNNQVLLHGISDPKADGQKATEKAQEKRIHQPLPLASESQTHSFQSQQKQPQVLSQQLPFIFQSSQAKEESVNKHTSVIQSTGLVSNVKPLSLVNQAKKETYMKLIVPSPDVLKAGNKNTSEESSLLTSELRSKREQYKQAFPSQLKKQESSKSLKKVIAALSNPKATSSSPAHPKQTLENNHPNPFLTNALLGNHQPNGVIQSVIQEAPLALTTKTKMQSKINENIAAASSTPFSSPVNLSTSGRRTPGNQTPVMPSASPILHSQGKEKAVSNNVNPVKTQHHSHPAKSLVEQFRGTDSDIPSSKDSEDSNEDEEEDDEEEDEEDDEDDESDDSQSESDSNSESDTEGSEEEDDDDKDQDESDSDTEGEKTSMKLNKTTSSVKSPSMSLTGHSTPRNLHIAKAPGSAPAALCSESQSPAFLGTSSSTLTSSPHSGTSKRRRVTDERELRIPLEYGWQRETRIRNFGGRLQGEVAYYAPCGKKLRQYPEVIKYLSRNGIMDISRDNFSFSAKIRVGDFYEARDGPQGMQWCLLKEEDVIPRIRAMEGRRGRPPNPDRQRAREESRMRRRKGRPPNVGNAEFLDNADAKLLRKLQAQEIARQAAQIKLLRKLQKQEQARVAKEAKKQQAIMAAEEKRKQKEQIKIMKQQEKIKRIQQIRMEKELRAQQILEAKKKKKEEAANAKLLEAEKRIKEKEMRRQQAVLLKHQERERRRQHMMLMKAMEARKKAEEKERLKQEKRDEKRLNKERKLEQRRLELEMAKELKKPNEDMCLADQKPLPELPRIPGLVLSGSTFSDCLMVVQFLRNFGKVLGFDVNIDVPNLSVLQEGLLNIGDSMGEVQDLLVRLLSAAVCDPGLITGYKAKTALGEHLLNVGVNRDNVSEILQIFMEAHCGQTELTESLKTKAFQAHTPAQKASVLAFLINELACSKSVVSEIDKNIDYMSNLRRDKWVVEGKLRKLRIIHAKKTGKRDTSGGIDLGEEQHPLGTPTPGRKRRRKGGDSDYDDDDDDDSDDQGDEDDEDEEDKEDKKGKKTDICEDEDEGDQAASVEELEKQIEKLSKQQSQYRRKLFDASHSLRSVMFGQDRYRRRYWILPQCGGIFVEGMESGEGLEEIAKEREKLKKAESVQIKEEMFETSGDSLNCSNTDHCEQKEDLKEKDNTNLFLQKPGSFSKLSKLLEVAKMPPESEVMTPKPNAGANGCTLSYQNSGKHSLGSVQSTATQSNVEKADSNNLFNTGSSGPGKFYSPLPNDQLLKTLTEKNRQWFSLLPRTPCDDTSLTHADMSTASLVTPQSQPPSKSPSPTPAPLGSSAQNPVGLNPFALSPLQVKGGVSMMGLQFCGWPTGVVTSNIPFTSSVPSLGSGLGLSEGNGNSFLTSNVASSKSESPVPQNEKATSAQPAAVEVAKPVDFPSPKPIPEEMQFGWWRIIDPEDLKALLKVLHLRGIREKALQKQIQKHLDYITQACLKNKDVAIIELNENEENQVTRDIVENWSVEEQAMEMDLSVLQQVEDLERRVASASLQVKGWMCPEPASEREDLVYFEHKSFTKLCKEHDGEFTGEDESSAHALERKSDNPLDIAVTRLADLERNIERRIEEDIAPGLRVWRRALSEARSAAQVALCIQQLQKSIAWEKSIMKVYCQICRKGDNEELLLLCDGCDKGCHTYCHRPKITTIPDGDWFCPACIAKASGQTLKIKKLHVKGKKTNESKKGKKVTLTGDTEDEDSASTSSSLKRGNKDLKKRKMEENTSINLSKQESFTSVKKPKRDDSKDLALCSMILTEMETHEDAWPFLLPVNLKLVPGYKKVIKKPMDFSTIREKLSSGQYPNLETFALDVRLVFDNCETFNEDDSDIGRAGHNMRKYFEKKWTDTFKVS
Chain of Bromodomain-containing protein 2 (Homo sapiens) (P25440 whole entry, looked up): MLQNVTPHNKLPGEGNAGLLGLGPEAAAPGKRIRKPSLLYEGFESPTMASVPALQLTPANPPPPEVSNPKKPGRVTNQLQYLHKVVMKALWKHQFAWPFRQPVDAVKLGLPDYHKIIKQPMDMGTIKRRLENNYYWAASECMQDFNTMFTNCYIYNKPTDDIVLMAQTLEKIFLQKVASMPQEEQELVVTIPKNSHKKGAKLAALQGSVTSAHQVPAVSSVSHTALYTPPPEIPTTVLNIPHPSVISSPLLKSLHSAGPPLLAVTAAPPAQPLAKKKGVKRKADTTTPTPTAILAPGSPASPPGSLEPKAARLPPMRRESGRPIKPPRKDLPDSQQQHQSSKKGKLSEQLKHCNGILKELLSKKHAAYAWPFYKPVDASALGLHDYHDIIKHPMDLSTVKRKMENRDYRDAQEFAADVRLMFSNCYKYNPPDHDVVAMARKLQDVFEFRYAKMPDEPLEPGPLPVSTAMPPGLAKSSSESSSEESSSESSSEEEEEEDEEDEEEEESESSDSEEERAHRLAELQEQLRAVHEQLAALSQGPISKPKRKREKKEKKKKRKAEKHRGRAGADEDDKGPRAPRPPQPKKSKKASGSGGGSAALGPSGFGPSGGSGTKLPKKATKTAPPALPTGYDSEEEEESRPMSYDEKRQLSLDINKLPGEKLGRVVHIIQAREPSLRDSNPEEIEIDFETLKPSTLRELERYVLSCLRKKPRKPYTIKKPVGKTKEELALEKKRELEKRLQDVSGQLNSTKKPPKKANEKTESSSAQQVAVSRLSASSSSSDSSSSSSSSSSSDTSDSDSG

Compound | inhibition at 10 µM (MV4-11 [1]) [%] | IC50 [2] [µM] | ΔTm [3] [°C] | inhibition at 10 µM (CWR22R [4]) [%] | IC50 (MV4-11 [5]) [µM] | further results
COc1ccc(Nc2c(-c3ccc4[nH]nc(C)c4c3)nc3cnc(N4CCN(C)CC4)cn23)cc1OC | 6.27 | 12.7 | 6.9 | 0 |  | 
COc1ccc(Nc2c(-c3ccc4[nH]nc(C)c4c3)nc3cnc(N4CCN(C)CC4)cn23)cc1 | 3.32 | 20.5 | 5.3 | 0 |  | 
Cc1n[nH]c2ccc(-c3nc4cnc(N5CCOCC5)cn4c3Nc3ccc(Br)cc3)cc12 | 45.9 | 4.69 | 6.9 | 10.1 |  | 
Cc1n[nH]c2ccc(-c3nc4cnc(N5CCN(C)CC5)cn4c3Nc3ccc(Br)cc3Cl)cc12 | 70.5 |  | 2.7 |  | 9.22 | 
Cc1n[nH]c2ccc(-c3nc4cnc(N5CCN(C)CC5)cn4c3Nc3ccc(F)cc3Br)cc12 | 82.4 | 7.48 | 5.1 | 4.41 | 3.83 | 
Cc1n[nH]c2ccc(-c3nc4cnc(N5CCN(C)CC5)cn4c3Nc3ccc(F)cc3)cc12 | 0 | 4.17 | 6.5 |  | 32.3 | IC50 (CWR22R [6]): 33.6 µM
Cc1n[nH]c2ccc(-c3nc4cnc(N5CCOCC5)cn4c3Cc3ccc(Cl)cc3)cc12 | 0 |  | 6.6 |  |  | 
Cc1n[nH]c2ccc(-c3nc4cnc(N5CCN(C)CC5)cn4c3Nc3ccccc3F)cc12 | 0 | 9.89 | 6.9 | 0 |  | 
Cc1sc2c(c1C)C(c1ccc(Cl)cc1)=N[C@@H](CC(=O)OC(C)(C)C)c1nnc(C)n1-2 |  |  |  |  | 0.017 | IC50 (CWR22R [6]): 0.033 µM; inhibition (INH) (MV4-11 [1]; time 96-120 hrs): 90.01%; ΔTm [7]: -0.5 °C; inhibition (INH) (CWR22R [4]; time 96-120 hrs): 82.88%
Cc1n[nH]c2ccc(-c3nc4cnc(N5CCN(C)CC5)cn4c3Nc3cccc(F)c3)cc12 | 18.5 | 14.3 | 6.9 | 5.41 |  | 
Cc1n[nH]c2ccc(-c3nc4cnc(N5CCN(C)CC5)cn4c3Nc3ccccc3)cc12 | 0 | 6.1 | 5 |  |  | 
Cc1n[nH]c2ccc(-c3nc4cnc(N5CCN(C)CC5)cn4c3Nc3ccc(Cl)cc3Cl)cc12 | 78.8 | 16 | 2 | 9.53 | 4.72 | 
Cc1n[nH]c2ccc(-c3nc4cnc(N5CCOCC5)cn4c3Nc3ccc(Cl)cc3)cc12 | 84 | 3.55 | 7.5 | 13.8 | 3.7 | IC50 (CWR22R [6]): 15.8 µM; ΔTm [8]: -2 °C; ΔTm [7]: 0 °C; ΔTm [9]: 1 °C; ΔTm [10]: -1 °C; inhibition [11]: Active; ΔTm [12]: 2.3 °C; ΔTm [13]: 0 °C; ΔTm [14]: -1.5 °C; ΔTm [15]: -1.5 °C
Cc1n[nH]c2ccc(-c3nc4cnc(N5CCN(C)CC5)cn4c3Nc3cc(Cl)ccc3Cl)cc12 | 23.8 | 3.61 | 3.9 | 3.8 |  | 
Cc1cc(Br)ccc1Nc1c(-c2ccc3[nH]nc(C)c3c2)nc2cnc(N3CCN(C)CC3)cn12 | 59.4 |  | 3.7 |  | 10.8 | IC50 (CWR22R [6]): 6.51 µM
Cc1n[nH]c2ccc(-c3nc4cnc(N5CCC(C)CC5)cn4c3Nc3ccc(Cl)cc3)cc12 | 27.9 | 20.4 | 2.1 | 12.6 |  | 
Cc1n[nH]c2ccc(-c3nc4cnc(N5CCN(C)CC5)cn4c3Nc3cccc(Cl)c3)cc12 | 0 |  | 6.3 |  |  | 
COc1ccc(Nc2c(-c3ccc4[nH]nc(C)c4c3)nc3cnc(N4CCOCC4)cn23)cc1 | 11.5 | 5.15 | 6.9 | 1.2 |  | 
Cc1n[nH]c2ccc(-c3nc4cnc(N5CCN(C)CC5)cn4c3Nc3ccc(Br)cc3)cc12 | 83 | 6.94 | 7.2 | 11.7 | 2.6 | 
Cc1n[nH]c2ccc(-c3nc4cnc(N5CCN(C)CC5)cn4c3Nc3ccc(F)c(Cl)c3)cc12 | 84.1 | 5.81 | 6 | 0.82 | 2.85 | IC50 (CWR22R [6]): 14 µM
Cc1n[nH]c2ccc(-c3nc4cnc(N5CCN(C)CC5)cn4c3Nc3ccc(Cl)cc3)cc12 | 83.7 | 6.35 | 5 | 8.11 | 3.51 | 
Cc1n[nH]c2ccc(-c3nc4cnc(N5CCN(C)CC5)cn4c3Nc3ccc(I)cc3)cc12 | 0 |  | 4.5 |  |  | 
COc1cc(-c2nc3cnccn3c2Nc2ccccc2)ccc1O |  |  |  |  |  | inhibition [16]: 40%
Cc1ccc(C)c(Nc2c(-c3ccc4[nH]nc(C)c4c3)nc3cnc(N4CCN(C)CC4)cn23)c1 | 0 |  | 5.3 |  |  | 
Cc1n[nH]c2ccc(-c3nc4cnc(N5CCN(C)CC5)cn4c3Nc3ccccc3Cl)cc12 | 58.1 |  | 3.6 |  |  | 
Cc1n[nH]c2ccc(-c3nc4cnc(N5CCN(C)CC5)cn4c3Nc3ccc(Cl)cc3F)cc12 | 0 | 6.78 | 4.5 |  | 10.3 | IC50 (CWR22R [6]): 14.1 µM
Cc1n[nH]c2ccc(-c3nc4cnc(N5CCOCC5)cn4c3Nc3ccccc3)cc12 | 0 | 3.79 | 6.1 |  |  | IC50 (CWR22R [6]): 38.2 µM
